Assay results published in BindingDB's records for doi:10.1016/j.bmc.2021.116093 (Wayne State University School of Medicine, 2021).

Tests used:
[1] = Inhibition of human FRbeta expressed in Chinese Hamster MTXRII-OuaR2-4 R2 cells assessed as reduction in cell proliferation after 96 hrs by CellTiter-blue assay
[2] = Inhibition of human RFC expressed in Chinese Hamster MTXRII-OuaR2-4 R2 cells assessed as reduction in cell proliferation after 96 hrs by CellTiter-blue assay
[3] = Inhibition of human FRalpha expressed in Chinese Hamster MTXRII-OuaR2-4 R2 cells assessed as reduction in cell proliferation after 96 hrs by CellTiter-blue assay
[4] = Inhibition of human PCFT expressed in Chinese Hamster MTXRII-OuaR2-4 R2 cells assessed as reduction in cell proliferation after 96 hrs by CellTiter-blue assay

Row | SMILES | IC50 [4] | IC50 [1] | IC50 [2] | IC50 [3]
1 | Nc1nc2sc(CCCCc3ccc(C(=O)N[C@@H](CCC(=O)O)C(=O)O)s3)cc2c(=O)[nH]1 | > 1000 nM | 1.7 nM | > 1000 nM | 2.6 nM
2 | Nc1nc2sc(CCCCc3ccc(C(=O)N[C@@H](CCC(=O)O)C(=O)O)o3)cc2c(=O)[nH]1 | > 1000 nM | 2.6 nM | > 1000 nM | 11 nM
3 | Nc1nc2sc(CCCc3ccc(C(=O)N[C@@H](CCC(=O)O)C(=O)O)s3)cc2c(=O)[nH]1 | > 1000 nM | 1.8 nM | > 1000 nM | 0.34 nM
4 | Nc1nc2sc(CCCCc3ccc(C(=O)N[C@@H](CCC(=O)O)C(=O)O)cc3)cc2c(=O)[nH]1 [(S)-2-(4-(4-(2-amino-4-oxo-3,4-dihydrothieno[2,3-d]pyrimidin-6-yl)butyl)benzamido)pentanedioic acid] | – | 20 nM | > 1000 nM | 9 nM

Now from value to compound, other results behind:

Row | IC50 [4] | SMILES | IC50 [1] | IC50 [2] | IC50 [3]
5 | > 1000 nM | Nc1nc2sc(CCCCc3cc(C(=O)N[C@@H](CCC(=O)O)C(=O)O)cs3)cc2c(=O)[nH]1 | 1.2 nM | > 1000 nM | 0.91 nM
6 | 80 nM | Nc1nc2sc(CCCc3cc(C(=O)N[C@@H](CCC(=O)O)C(=O)O)cs3)cc2c(=O)[nH]1 | 0.72 nM | > 1000 nM | 1.1 nM
7 | 460 nM | Nc1nc2sc(CCCCc3csc(C(=O)N[C@@H](CCC(=O)O)C(=O)O)c3)cc2c(=O)[nH]1 | 5.6 nM | > 1000 nM | 5.6 nM
8 | 107 nM | Nc1nc2sc(CCCc3csc(C(=O)N[C@@H](CCC(=O)O)C(=O)O)c3)cc2c(=O)[nH]1 | 0.24 nM | > 1000 nM | 0.44 nM
